The target in series [1] is T1, autocrine motility factor (Homo sapiens, UniProt Q13822).
T1 construct: Whole blood was anticoagulated with heparin and centrifuged, and then plasma was collected; from tissue; host or cells: pooled human plasma (heparin-anticoagulated whole blood)
Kind of series: Inhibition of LPA formation in mixed ex vivo human plasma. It is filed as biochemical. As to conditions: 37° C., 2 h. How it is done:
Autocrine motility factor is a phosphodiesterase in plasma that converts lysophosphatidylcholine (LPC) to lysophosphatidic acid (LPA). Therefore, the formation of LPA can be used to evaluate the potency of an autocrine motility factor inhibitor. The potency of the compound in mixed ex vivo human plasma was evaluated.
Whole blood was anticoagulated with heparin and centrifuged, and then plasma was collected. 5 μL of gradient-diluted test compounds or DMSO was added to 95 μL of plasma and incubated at 37° C. for 2 h. After that, a stop buffer (40 mM disodium hydrogen phosphate buffer, containing 30 mM of citric acid, pH=4) was added. LPA in plasma was detected by LC-MSMS before and after incubation. In order to determine the concentration of LPA 18:2 or LPA 20:4 in the plasma in study, calibration standard substances at 20000 ng/mL, 10000 ng/mL, 5000 ng/ml, 2000 ng/ml, 1000 ng/mL, 500 ng/mL, 200 ng/ml, 100 ng/mL, 50 ng/ml, 20 ng/mL and 10 ng/ml for LPA 18:2 or LPA 20:4 were prepared by performing serial dilution in butanol. 3 μL of calibration standard solution was added to 27.0 μL of blank plasmas in each 1.5 mL microcentrifuge tube to produce 1× calibration standard substances. 30.0 μL of standard substances or plasma in study was added to each 1.5 mL microcentrifuge tube. 200 μL of butanol (containing 25.0 ng/mL LPA 17:0 for internal control) was added to each 1.5 mL microcentrifuge tube containing the plasma in study or calibration standard substance. Vortex oscillation was performed for 1 min, and centrifugation was performed at 10000 rpm for 10 min. 180 μL of the supernatant was transferred to a 96-well plate, and LC/MS/MS was used together with the standard substance to quantify the concentration of LPA 18:2 in the plasma. In short, 8 μL of the solution was injected, and LC-MS/MS analysis using an ACQUITY UPLC BEH C18 column (2.1×50 mm, 1.7 μm) was performed, wherein mobile phase A [20 mM NH4OAC aqueous solution (0.1% FA)] and mobile phase B [5 mM NH4OAC aqueous solution/0.2% FA in ACN=5:95] were used. The parameters of a mass spectrometer for LPA 18:2 were optimized by means of deprotonation of molecular ions. For LPA 18:2 at m/z 433.2([M−H]−), LPA 20:4 at 457.2, and LPA 18:2 and LPA 20:4 both at m/z 152.8, abundant product ions were obtained. Quantitative data were obtained in a multiple reaction monitoring (MRM) negative electrospray ionization mode.
The inhibition rates of compounds at different concentrations on LPA formation were determined by comparing the changes of LPA levels in incubated and unincubated plasma. The IC50 of the compounds was calculated as a calculation inhibition rate, and the relative concentration at each well=the concentration at each well−the average concentration at baseline.
Inhibition rate %=(average relative concentration at control well−average relative concentration at test well)/average relative concentration at control well×100%. The curve was plotted with the inhibition rates as a y axis and the compound concentrations as an x axis, and fitting was performed by GraphPad Prism7.0 using log (inhibitor) and normalized response (variable slope).

A short description of series [2]: Pharmacokinetic test in rats. The format is in vivo. As to conditions: male, SD, rat, plasma; for Cmax: read-out: C0 or Cmax; for bioavailability: PO 5 mg/kg vs IV 1 mg/kg. Here is the method:
Test objective: test compounds were given to SD rats via single-dose intravenous and intragastric administration, the concentrations of the test compounds in plasma of rats were measured, and the pharmacokinetic characteristics and bioavailability of test compounds in rats were evaluated.
Test animals: male SD rats, about 220 g, 6-8 weeks old, six rats/compound, purchased from Chengdu Ddossy Experimental Animals Co., Ltd.
Test method: on the day of the test, 6 SD rats were randomly grouped according to their body weights. The rats were fasted with water available for 12-14 h one day before the administration, and were fed 4 h after the administration. The administration was performed according to Table 5.
Before and after the administration, 0.1 mL of blood was taken from the orbits of the rats under isoflurane anaesthesia, and placed in an EDTAK2 centrifuge tube. Centrifugation was performed at 5000 rpm at 4° C. for 10 min, and plasma was collected.
Time points for sample collection in group G1 comprise 0 min, 5 min, 15 min, 30 min, 1 h, 2 h, 4 h, 6 h, 8 h and 24 h.
Time points for sample collection in group G2 comprise 0 min, 15 min, 30 min, 1 h, 2 h, 4 h, 6 h, 8 h and 24 h.
30 μL of each of plasma samples, standard curve samples and quality control samples was taken, and 200 μL of acetonitrile solution containing an internal standard was added, and the resulting mixture was homogeneously mixed by vortex and centrifuged at 4° C. at 12000 rpm for 10 min. 170 μL of the supernatant was taken to a 96-well plate, and LC-MS/MS analysis was performed, wherein the sample size was 2 μL.
The main pharmacokinetic parameters were analyzed by a non-compartmental model using WinNonlin 8.0 software.

Setting [3] is: LPA 18:2 by LC-MS/MS, read-out: IC50 for inhibiting LPA formation (18:2).
Where [4] appears, read: LPA 20:4 by LC-MS/MS, read-out: IC50 for inhibiting LPA formation (20:4).

Each structure is given as a SMILES string. Where two headings read alike, the source gives them in different places.

For the compound `[2H]C1([2H])N(CC(=O)N2CC(O)C2)C([2H])([2H])C([2H])([2H])N(c2cc3c(N(C)c4nc(-c5ccc(F)cc5)c(C#N)s4)c(CC)nn3cc2F)C1([2H])[2H]` [Compound 4, 2-((2-ethyl-6-fluoro-5-(4-(2-(3-hydroxyazetidin-1-yl)-2-oxoethyl)piperazin-1-yl-2,2,3,3,5,5,6,6-d8)pyrazolo[1,5-a]pyridin-3-yl)(methyl)amino)-4-(4-fluorophenyl)thiazole-5-carbonitrile], the IC50 (commonly the point on the concentration scale where inhibition reaches its midpoint) in series [1] (setting [3]) came to 51.8 nM; in series [1] (setting [4]), 54.8 nM.
As to `[2H]C([2H])([2H])N(c1nc(-c2ccc(F)cc2)c(C#N)s1)c1c(C([2H])([2H])C([2H])([2H])[2H])nn2cc(F)c(N3CCN(CC(=O)N4CC(O)C4)CC3)cc12` [Compound 2, 2-((2-(ethyl-d5)-6-fluoro-5-(4-(2-(3-hydroxyazetidin-1-yl)-2-oxoethyl)piperazin-1-yl)pyrazolo[1,5-a]pyridin-3-yl)(methyl-d3)amino)-4-(4-fluorophenyl)thiazole-5-carbonitrile], in series [1] (setting [3]), the half-maximal inhibitory concentration (IC50) came out at 52 nM. For the same compound, the half-inhibitory concentration (IC50) in series [1] (setting [4]) was 55.3 nM. Besides, in series [2] (IV 1 mg/kg), the AUC – broadly, concentration integrated over time – is 1330 ± 83 ng·h/mL; the half-life (in general, the time needed for the level to fall by half in the phase considered) is 2.4 ± 0.35 h; the Cmax (commonly the maximum level reached in the sampled fluid or tissue) is 1030 ± 62 ng/mL. For the same compound, in series [2] (PO 5 mg/kg), the AUC turned out to be 2570 ± 449 ng·h/mL, the Tmax (usually the time at which the peak concentration occurs) was 4.33 ± 2.9 h, the half-life was 2.87 ± 0.15 h and the Cmax came to 297 ± 105 ng/mL. The bioavailability (commonly dose-corrected exposure relative to a reference, in per cent) in series [2] came to 38.6 ± 6.7%.
Turning to `[2H]C([2H])([2H])C([2H])([2H])c1nn2cc(F)c(N3CCN(CC(=O)N4CC(O)C4)CC3)cc2c1N(C)c1nc(-c2ccc(F)cc2)c(C#N)s1` [Compound 1, 2-((2-(ethyl-d5)-6-fluoro-5-(4-(2-(3-hydroxyazetidin-1-yl)-2-oxoethyl)piperazin-1-yl)pyrazolo[1,5-a]pyridin-3-yl)(methyl)amino)-4-(4-fluorophenyl)thiazole-5-carbonitrile], in series [1] (setting [3]), the IC50 was 46 nM. Moreover, in series [1] (setting [4]), the IC50 worked out at 48.5 nM. Further, in series [2] (IV 1 mg/kg), the exposure (AUC) is 1060 ± 124 ng·h/mL, the half-life was 2.6 ± 0.61 h and the peak concentration (Cmax) is 967 ± 106 ng/mL. In series [2] (PO 5 mg/kg), the AUC was 1170 ± 46 ng·h/mL, the Tmax was found to be 4 ± 2 h, the half-life is 6.4 ± 2.4 h and the Cmax is 181 ± 10 ng/mL. The bioavailability in series [2] is 22.1 ± 0.87%.

The values above are taken from patent publication US20240317736A1, “DEUTERATED DERIVATIVE AS ATX INHIBITOR, AND APPLICATION THEREOF” (Xizang Haisco Pharmaceutical Co., Ltd., priority 2020, published 2024).
